Source: the supplement of paper PMC10307832

How the values were obtained:
Assay in all cases: relative viability (nuclei count vs DMSO), 5 days (fraction); higher = more cells survive
[1] = compound: O=C(c1cc(Cc2n[nH]c(=O)c3ccccc23)ccc1F)N1CCN(C(=O)C2CC2)CC1 [Olaparib] + Nc1ncn([C@H]2C[C@H](O)[C@@H](CO)O2)c(=O)n1 [Decitabine] (partner 2 µM)
Summary of the method: (§1)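 Five library-drug doses in √10 steps were combined with a fixed anchor-drug dose, or a single drug was given alone, by pin tool to lung cancer cell lines in 1536-well plates the day after seeding. Nuclei were stained and counted after 5 days. Relative viability is the nuclei count in treated wells over that in vehicle wells, taken as the median of duplicate plates.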

[2] = compound: CC(C)C[C@H](NC(=O)[C@H](CCc1ccccc1)NC(=O)CN1CCOCC1)C(=O)N[C@@H](Cc1ccccc1)C(=O)N[C@@H](CC(C)C)C(=O)[C@@]1(C)CO1 [Carfilzomib] + COc1cccc2cc(-c3nc([C@H]4CC[C@H](C(=O)O)CC4)n4ncnc(N)c34)[nH]c12 [OSI-027] (partner 0.5 µM)
Summary of the method: as §1

[3] = compound: CC(C)C[C@H](NC(=O)[C@H](CCc1ccccc1)NC(=O)CN1CCOCC1)C(=O)N[C@@H](Cc1ccccc1)C(=O)N[C@@H](CC(C)C)C(=O)[C@@]1(C)CO1 [Carfilzomib] + N=C(N)NC(=N)NCCc1ccccc1 [Phenformin] (partner 250 µM)
Summary of the method: as §1

[4] = compound: O=C(c1cc(Cc2n[nH]c(=O)c3ccccc23)ccc1F)N1CCN(C(=O)C2CC2)CC1 [Olaparib] + CC1(C)CCC(c2ccc(Cl)cc2)=C(CN2CCN(c3ccc(C(=O)NS(=O)(=O)c4ccc(N[C@H](CCN5CCOCC5)CSc5ccccc5)c(S(=O)(=O)C(F)(F)F)c4)cc3)CC2)C1 [Navitoclax] (partner 0.5 µM)
Summary of the method: as §1

| Cell Line | relative viability ([1]; first compound 0.08 µM) | relative viability ([1]; first compound 0.253 µM) | relative viability ([1]; first compound 2.53 µM) | relative viability ([1]; first compound 8 µM) | relative viability ([2]; first compound 0.001 µM) | relative viability ([2]; first compound 0.003162 µM) | relative viability ([2]; first compound 0.01 µM) | relative viability ([2]; first compound 0.03162 µM) | relative viability ([2]; first compound 0.1 µM) | relative viability ([3]; first compound 0.001 µM) | relative viability ([3]; first compound 0.003162 µM) | relative viability ([3]; first compound 0.01 µM) | relative viability ([3]; first compound 0.03162 µM) | relative viability ([3]; first compound 0.1 µM) | relative viability ([4]; first compound 0.08 µM) | relative viability ([4]; first compound 0.253 µM) | relative viability ([4]; first compound 2.53 µM) | relative viability ([4]; first compound 8 µM) |
| --- | --- | --- | --- | --- | --- | --- | --- | --- | --- | --- | --- | --- | --- | --- | --- | --- | --- | --- |
| NCI-H23 | 0.336 | 0.313 | 0.259 | 0.277 | 0.592 | 0.887 | 0.716 | 0.145 | 0.144 | 0.772 | 0.684 | 0.762 | 0.36 | 0.134 | 0.953 | 0.684 | 0.603 | 0.387 |
| NCI-H322M | 0.685 | 0.592 | 0.708 | 0.596 | 0.592 | 0.624 | 0.606 | 0.462 | 0.332 | 0.77 | 0.84 | 0.827 | 0.494 | 0.306 | 1.34 | 1.07 | 1.23 | 1.01 |
| NCI-H441 | 0.257 | 0.197 | 0.243 | 0.188 | 0.649 | 0.588 | 0.295 | 0.153 | 0.16 | 0.785 | 0.898 | 0.242 | 0.161 | 0.177 | – | 0.406 | 0.706 | 0.582 |
| NCI-H460 | 0.114 | 0.128 | 0.0907 | 0.062 | 0.647 | 0.678 | 0.697 | 0.287 | 0.022 | 0.553 | 0.582 | 0.571 | 0.0312 | 0.0172 | 1.18 | 0.94 | 0.815 | 0.424 |
| NCI-H520 | 0.467 | 0.318 | 0.365 | 0.261 | 0.19 | 0.259 | 0.22 | 0.221 | 0.191 | 0.609 | 0.46 | 0.227 | 0.287 | 0.227 | 1.32 | 0.932 | 1.08 | 0.601 |
| NCI-H596 | 0.915 | 0.9 | 0.732 | 0.632 | 0.657 | 1 | 0.684 | 0.372 | 0.149 | 0.807 | 0.812 | 0.781 | 0.433 | 0.25 | 0.899 | 0.902 | 0.878 | 0.519 |
| NCI-H647 | 0.293 | 0.253 | 0.227 | 0.152 | 0.562 | 0.747 | 0.583 | 0.0357 | 0.0226 | 0.485 | 0.667 | 0.237 | 0.0272 | 0.0185 | 1.44 | 1.1 | 1.06 | 0.745 |
| NCI-H727 | 0.908 | 0.858 | 0.893 | 0.805 | 0.618 | 0.646 | 0.734 | 0.463 | 0.242 | 0.559 | 0.626 | 0.573 | 0.256 | 0.182 | 0.42 | 0.344 | 0.321 | 0.204 |
| NCI-H838 | 0.416 | 0.32 | 0.354 | 0.323 | 0.367 | 0.45 | 0.431 | 0.388 | 0.131 | 0.66 | 0.865 | 0.537 | 0.122 | 0.13 | 1.12 | 1.06 | 1.03 | 1.03 |
| NCI-H1355 | 0.37 | 0.345 | 0.304 | 0.31 | 0.411 | 0.495 | 0.493 | 0.311 | 0.163 | 0.427 | 0.51 | 0.469 | 0.302 | 0.167 | 0.959 | 0.887 | 0.949 | 0.881 |
| NCI-H1395 | 0.64 | 0.654 | 0.504 | 0.494 | 0.526 | 0.734 | 0.642 | 0.5 | 0.309 | 0.448 | 0.457 | 0.441 | 0.298 | 0.314 | 1.27 | 0.937 | 0.776 | 0.573 |
| NCI-H1437 | 0.458 | 0.391 | 0.434 | 0.386 | 0.876 | 0.952 | 0.841 | 0.889 | 0.241 | 0.306 | 0.346 | 0.301 | 0.249 | 0.123 | 1.12 | 1.01 | 0.952 | 0.761 |
| NCI-H1650 | 0.432 | 0.39 | 0.32 | 0.354 | 0.656 | 0.496 | 0.162 | 0.142 | 0.198 | 0.421 | 0.254 | 0.232 | 0.174 | 0.156 | 1.7 | 1.1 | 1.24 | 1.11 |
| NCI-H1651 | 0.356 | 0.277 | 0.224 | 0.168 | 0.733 | 0.743 | 0.588 | 0.127 | 0.0922 | 0.33 | 0.342 | 0.173 | 0.133 | 0.0929 | 0.97 | 0.814 | 0.654 | 0.257 |
| NCI-H1666 | 0.778 | 0.604 | 0.636 | 0.597 | 0.807 | 0.87 | 0.955 | 0.749 | 0.383 | 0.594 | 0.569 | 0.528 | 0.428 | 0.278 | 1.17 | 0.828 | 0.796 | 0.853 |
| NCI-H1734 | 0.418 | 0.311 | 0.237 | 0.229 | 0.62 | 0.683 | 0.585 | 0.222 | 0.138 | 0.375 | 0.404 | 0.331 | 0.18 | 0.104 | 0.854 | 0.709 | 0.765 | 0.531 |
